Laboratory results: patent publication US8557800B2, “Sphingosine kinase inhibitors” (Apogee Biotechnology Corporation, priority 2005, dated 2013)

How the values were obtained:
recombinant human SK = assay: Inhibition of recombinant human SK, LC/MS/MS assay; type: biochemical; details: 6 μg/ml compound
Method in brief: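 Enzyme incubated with unlabeled sphingosine and ATP (1 mM, as in the radiometric format) for 30 min, then stopped and extracted with acetonitrile. S1P quantified by C8 reverse-phase HPLC–MS/MS against C17 sphingosine and C17 S1P internal standards using calibration curves.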

[1] = test system: MCF-10A non-transformed human breast epithelial cells; assay: Cytotoxicity, SRB binding assay; type: cell-based; details: inhibition of cell proliferation, 48 h, read-out: MCF-10A IC50
Method in brief: (§1)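 Cells exposed to varying compound doses for 48 h, then survival measured by sulforhodamine B staining. IC50 is the concentration giving 50% proliferation inhibition, in μM, as mean±sd of replicate trials.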

[2] = test system: MCF-7 human breast adenocarcinoma cells; assay: Cytotoxicity, SRB binding assay; type: cell-based; details: MCF7, inhibition of cell proliferation, 48 h, read-out: MCF-7 IC50
Method in brief: as §1

| SMILES | Recombinant SK (% inhibition) (recombinant human SK) [%] | IC50 [1] [µM] | IC50 [2] [µM] |
| --- | --- | --- | --- |
| CC(C)NC(=O)C12CC3CC(C1)CC(c1ccc(Cl)cc1)(C3)C2 [Compound 1, 3-(4-Chloro-phenyl)-adamantane-1-carboxylic acid isopropylamide] | 38 | 151 | 23 |
| O=C(Nc1ccccc1)C12CC3CC(C1)CC(c1ccc(Cl)cc1)(C3)C2 [Compound 4, 3-(4-Chloro-phenyl)-adamantane-1-carboxylic acid phenylamide] | 44 | 137 | 72 |
| O=C(Nc1ccc(O)cc1)C12CC3CC(C1)CC(c1ccc(Cl)cc1)(C3)C2 [Compound 6, 3-(4-Chloro-phenyl)-adamantane-1-carboxylic acid (4-hydroxy-phenyl)-amide] | 72 | 15 | 5 |
| O=C(Nc1ccc(O)cc1O)C12CC3CC(C1)CC(c1ccc(Cl)cc1)(C3)C2 [Compound 8, 3-(4-Chloro-phenyl)-adamantane-1-carboxylic acid (2,4-dihydroxy-phenyl)-amide] | 49 | 94 | 47 |
| O=C(Nc1cccc(CO)c1)C12CC3CC(C1)CC(c1ccc(Cl)cc1)(C3)C2 [Compound 9, 3-(4-Chloro-phenyl)-adamantane-1-carboxylic acid (3-hydroxymethyl-phenyl)-amide] | 84 | 17 | 9 |
| N#CCc1ccc(NC(=O)C23CC4CC(C2)CC(c2ccc(Cl)cc2)(C4)C3)cc1 [Compound 11, 3-(4-Chloro-phenyl)-adamantane-1-carboxylic acid (4-cyanomethyl-phenyl)-amide] | 17 | 87 | 87 |
| O=C(NCc1ccccc1)C12CC3CC(C1)CC(c1ccc(Cl)cc1)(C3)C2 [Compound 12, 3-(4-Chloro-phenyl)-adamantane-1-carboxylic acid benzylamide] | 36 | 99 | 11 |
| CC(C)(C)c1ccc(CNC(=O)C23CC4CC(C2)CC(c2ccc(Cl)cc2)(C4)C3)cc1 [Compound 13, 3-(4-Chloro-phenyl)-adamantane-1-carboxylic acid 4-tert-butyl-benzylamide] | 78 | 115 | 51 |
| CC(NC(=O)C12CC3CC(C1)CC(c1ccc(Cl)cc1)(C3)C2)c1ccc(Br)cc1 (stereo not drawn) [Compound 29, 3-(4-Chloro-phenyl)-adamantane-1-carboxylic acid [1-(4-bromo-phenyl)-ethyl]-amide] | 55 | 106 | 7 |
| O=C(NCCc1ccccc1)C12CC3CC(C1)CC(c1ccc(Cl)cc1)(C3)C2 [Compound 37, 3-(4-Chloro-phenyl)-adamantane-1-carboxylic acid phenethyl-amide] | 24 | 127 | 5 |
| O=C(NCCc1ccc(F)cc1)C12CC3CC(C1)CC(c1ccc(Cl)cc1)(C3)C2 [Compound 38, 3-(4-Chloro-phenyl)-adamantane-1-carboxylic acid [2-(4-fluoro-phenyl)-ethyl]-amide] | 40 | 40 | 9 |
| O=C(NCCc1ccc(Br)cc1)C12CC3CC(C1)CC(c1ccc(Cl)cc1)(C3)C2 [Compound 39, 3-(4-Chloro-phenyl)-adamantane-1-carboxylic acid [2-(4-bromo-phenyl)-ethyl]-amide] | 19 | 106 | 15 |
| O=C(NCCc1ccc(O)cc1)C12CC3CC(C1)CC(c1ccc(Cl)cc1)(C3)C2 [Compound 40, 3-(4-Chloro-phenyl)-adamantane-1-carboxylic acid [2-(4-hydroxy-phenyl)-ethyl]-amide] | 100 | 37 | 6 |
| CN1CCN(NC(=O)C23CC4CC(C2)CC(c2ccc(Cl)cc2)(C4)C3)CC1 [Compound 52, 3-(4-Chloro-phenyl)-adamantane-1-carboxylic acid (4-methyl-piperazin-1-yl)-amide] | 54 | 15 | 10 |
| O=C(NCCN1CCOCC1)C12CC3CC(C1)CC(c1ccc(Cl)cc1)(C3)C2 [Compound 58, 3-(4-Chloro-phenyl)-adamantane-1-carboxylic acid (2-morpholin-4-yl-ethyl)-amide] | 67 | 36 | 20 |
| O=C(NCCc1ccncc1)C12CC3CC(C1)CC(c1ccc(Cl)cc1)(C3)C2 [Compound 64, 3-(4-Chloro-phenyl)-adamantane-1-carboxylic acid (2-pyridin-4-yl-ethyl)-amide] | 41 | 20 | 8 |
| Cc1cc2cc(NC(=O)C34CC5CC(C3)CC(c3ccc(Cl)cc3)(C5)C4)ccc2[nH]1 [Compound 66, 3-(4-Chloro-phenyl)-adamantane-1-carboxylic acid (2-methyl-1H-indol-5-yl)-amide] | 92 | 53 | 19 |
| CCn1c2ccccc2c2cc(NC(=O)C34CC5CC(C3)CC(c3ccc(Cl)cc3)(C5)C4)ccc21 [Compound 68, 3-(4-Chloro-phenyl)-adamantane-1-carboxylic acid (9-ethyl-9H-carbazol-3-yl)-amide] | 17 | 104 | 54 |
| O=C(Nc1nc(-c2ccc(Cl)cc2)cs1)C12CC3CC(CC(C3)C1)C2 [Compound 69, Adamantane-1-carboxylic acid [4-(4-chloro-phenyl)-thiazol-2-yl]-amide] | 40 | 106 | 30 |
| O=C(Nc1nc(-c2ccc(Cl)cc2)cs1)C12CC3CC(C1)CC(c1ccc(Cl)cc1)(C3)C2 [Compound 70, 3-(4-Chloro-phenyl)-adamantane-1-carboxylic acid [4-(4-chloro-phenyl)-thiazol-2-yl]-amide] | 33 | 103 | 7 |
| O=C(Nc1nc2ccccc2s1)C12CC3CC(C1)CC(c1ccc(Cl)cc1)(C3)C2 [Compound 71, 3-(4-Chloro-phenyl)-adamantane-1-carboxylic acid benzothiazol-2-ylamide] | 27 | 118 | 21 |
| O=C(Nc1nc2cc(Cl)ccc2o1)C12CC3CC(C1)CC(c1ccc(Cl)cc1)(C3)C2 [Compound 72, 3-(4-Chloro-phenyl)-adamantane-1-carboxylic acid (5-chloro-benzooxazol-2-yl)-amide] | 14 | 6 | 2 |
| Clc1ccc(C23CC4CC(CC(CNCCN5CCOCC5)(C4)C2)C3)cc1 [Compound 87, [3-(4-Chloro-phenyl)-adamantan-1-ylmethyl]-(2-morpholin-4-yl-ethyl)-amine] | 75 | 33 | 38 |
| Clc1ccc(-c2cnc(NCC34CC5CC(C3)CC(c3ccc(Cl)cc3)(C5)C4)s2)cc1 [Compound 90, [3-(4-Chloro-phenyl)-adamantan-1-ylmethyl]-[5-(4-chloro-phenyl)-thiazol-2-yl]-amine] | 26 | 107 | 96 |
